Experimental data published in patent US11197859B2 (AUTIFONY THERAPEUTICS LIMITED, priority 2010, dated 2021).
Where two headings read alike, the source gives them in different places.

Columns and labels:
[1] = Blood concentrations in satellite animals of the electroshock seizure study; format: in vivo; details: CD, whole blood, po, rat, 2 hours after dosing
Protocol: Testing involved determining the threshold for tonic hindlimb extensor seizures using a Hugo Sachs Electronik stimulator which delivers a constant current of 0.3 second duration, 50 Hz, sinewave form, fully adjustable between 1 and 300 mA. Stimuli were delivered via corneal electrodes (Stean T O, Atkins A R, Heidbreder C A, Quinn L P, Trail B K, Upton N. (2005) Br J Pharmacol. 144(5):628-35). Seizure threshold was determined using the ‘up and down’ method of Kimball et al. (1957)(Kimball A W, Burnett W T Jr, Doherty D G. (1957) Radiat Res. 7(1):1-12). The first animal tested in each group was stimulated with a current that might be expected to be close to the threshold for induction of a seizure. If a tonic seizure was not induced, then the next animal in the group received a stimulus 5 mA higher. If a tonic seizure was induced, then the next animal received a stimulus 5 mA lower. This is repeated for all animals within the control (vehicle) group. In the case of groups treated with a test compound steps of 5 to 10 mA were used. At the end of the study, blood samples were taken for analysis of the drug concentrations in this compartment (n=4/group).
All doses were calculated as base. Sodium valproate was suspended in Methocell 1% (w/v) and dosed via the oral (p.o.) route at 5 mL/kg 1 hour before test. Reference Example RE1 was dissolved in DMSO and then suspended in Methocell 1% (w/v) to a final DMSO concentration of 5% (v/v). Reference Example RE1 was then dosed p.o. at 5 mL/kg 2 hours before test.
Blood concentrations of Reference Example RE1 measured in satellite animals 2 hours after dosing were 5.3 and 9.1 μg/mL following the doses of 30 and 60 mg/kg p.o., respectively. These concentrations are equivalent to unbound concentrations in blood of 1.3 and 2.2 μM, respectively, and thus are consistent with concentrations of Reference Example RE1 that produce a significant increase in Kv3-mediated currents observed in the in vitro recombinant human Kv3 electrophysiology assay, described above.

MNTB neurons = assay: High-voltage activated potassium currents in MNTB neurons, in vitro; format: cell-based, mouse; details: 10 microM in continuing presence of TEA (1 mM); effect on the TEA-induced reduction
Protocol: Male CBA/Ca mice (aged 12-16 days) were used in these experiments (in accordance with the UK Animals Scientific Procedures Act, 1986). Brain slices containing the medial nucleus of the trapezoid body (MNTB) were prepared as described previously (Brew and Forsythe, 2005).
Chemicals and reagents were purchased from Sigma, (Poole, UK) unless otherwise noted. Reference Example RE1 was dissolved in DMSO and diluted in ACSF to the required concentration.
Recordings from identified MNTB neurons were conducted as previously described (Brew and Forsythe, 2005). Slices was placed in a superfusion chamber on an inverted microscope stage and continuously perfused with gassed (95% O2-5% CO2) ACSF at a rate of 1 ml min-1 at room temperature. Whole-cell recordings were made from visually identified MNTB neurons using an […] amplifier (Molecular Devices, Union City, Calif., USA). Patch solution comprised (in mM) potassium gluconate (97.5), KCl (32.5), Hepes (40), EGTA (5), MgCl2 (1), Na2phosphocreatin (5), pH 7.2 with KOH. Pipettes had resistances of 3-5 MΩ and series resistances were 6-10 MΩ (compensated by 70%, 10 μs lag). Access resistance was frequently monitored and the recording discarded if increases were more than 2 MΩ. […]

[2] = test system: parvalbumin-positive interneurons in the somatosensory cortex; assay: Firing of parvalbumin-positive interneurons in somatosensory cortex slices, in vitro; format: cell-based, mouse; details: for frequency of action potential firing in response to step currents: vs TEA alone, p<0.05

Work on CC[C@H]1NC(=O)N(c2ccc(Oc3ccc(C)c(OC)c3)nc2)C1=O [RE1, (5R)-5-ethyl-3-(6-{[4-methyl-3-(methyloxy)phenyl]oxy}-3-pyridinyl)-2,4-imidazolidinedione] yielded a concentration at 2 h ([1]; 30 mg/kg p.o., read-out: blood concentration) of 5300 ng/mL, a concentration at 2 h ([1]; 30 mg/kg p.o., read-out: unbound concentration in blood) of 1300 nM and a concentration at 2 h ([1]; 60 mg/kg p.o., read-out: blood concentration) of 9100 ng/mL. For the same compound, the concentration at 2 h ([1]; 60 mg/kg p.o., read-out: unbound concentration in blood) was 2200 nM, the “amplitude of outward high voltage-activated potassium currents evoked by voltage steps to +40 mV” value (MNTB neurons) was “reversed” and the “decrease of mean action potential half-width” value ([2]; TEA (0.5 mM) + compound 1 μM vs TEA (0.5 mM) only, p<0.05, n=9) was 24%. The “frequency of action potential firing in response to step currents” value ([2]; TEA (0.5 mM) + compound 1 μM, n=9) was “significantly reversed”, the “decrease of mean action potential half-width” value ([2]; TEA (0.5 mM) + compound 10 μM vs TEA (0.5 mM) only, p<0.01, n=5) was 36% and the “frequency of action potential firing in response to step currents” value ([2]; TEA (0.5 mM) + compound 10 μM, n=5) was “significantly reversed”.
